pIC50: −log10 of the molar value. “Also recorded” adds a separate entry of the source. Where two headings read alike, the source gives them in different places.

Test [1] relates to U937 cells. As to the kind of experiment: cells. The test is classed as cell-based, human. The conditions noted are these: for Effect on DNA fragmentation induced by TNF or UV light: result in words.
Test [2] has as its system BT-20. It is filed as cell-based, human. The conditions noted are these: for % DNA fragmentation: BT-20, UV 0.5 J/cm^2, 8 h, no inhibitor 44 ± 3.6.
The subject of test [3] is 3T3. In words: Inhibition of UV-induced DNA fragmentation in 3T3 cells. It is filed as cell-based, murine. The conditions noted are these: UV 0.5 J/cm^2, 8 h, no inhibitor 38 ± 1.9. On the procedure:
(§1) To determine if these findings were unique to U937 or if other cell lines also require protease activity to undergo apoptosis, the effects of several inhibitors on apoptosis induced by UV light in the human mammary carcinoma, BT-20, the murine fibroblast cell line, 3T3, and the human myeloid leukemia, HL-60 were tested. For the BT-20 and 3T3 cells, target cells were pretreated for one hour (with or without inhibitors as indicated in the table) and exposed to UV light at 0.5 J/cm^2 and then incubated for eight hours prior to assessing DNA fragmentation. HL-60 cells were pretreated for one hour (with or without inhibitors as indicated in the table) and exposed to UV at 0.2 J/cm^2 and then incubated for two hours prior to assessing DNA fragmentation.
(§2) DNA fragmentation assays were carried out according to the protocol of Wright S. C., et al. (1,992) J. Cell. Biochem. 48, 344-355. Target cells were labeled with ^3 H-thymidine and plated in triplicate in flat bottom microtiter plates. Cells were incubated for the indicated length of time for each experiment in the presence of TNF or various inhibitors. In some experiments, cells were treated with UV light at 245 nm using a UV Crosslinker (Fisher Scientific). Assays were harvested and counted on a Packard matrix 96 beta counter. Percent DNA fragmentation was calculated as for the nuclear assay described in Example 3. In assays to test the effects of various inhibitors, the pH of extra wells containing assay buffer, target cells, and each inhibitor was always checked at the beginning and end of each assay to assure that the pH remained at 7.5.

Test [4] deals with HL-60. As to the kind of experiment: Inhibition of UV-induced DNA fragmentation in HL-60 cells. It is filed as cell-based, human. As to conditions: UV 0.2 J/cm^2, 2 h, no inhibitor 49 ± 2.0. Here is the method:
as §1
as §2, with “In assays to test the effects of various inhibitors, the pH of extra wells containing assay buffer, target cells, and each inhibitor was always checked at the beginning and end of each assay to assure that the pH remained at 7.5.” left out

Test [5] relates to U937 cells. As to the kind of experiment: Visualization of DNA fragmentation in U937 cells by agarose gel electrophoresis. It is filed as cell-based, human. On the procedure:
In FIG. 2, U937 cells were pretreated with and without TPCK 10 μM for 30 min, exposed to UV light 0.15 J/cm^2, incubated another 2.5 h, then the DNA extracted and analyzed by agarose gel electrophoresis. Lane 1 of FIG. 2 contains molecular weight markers, lane 2 contains untreated U937, lane 3 contains U937 treated with TPCK, lane 4 contains U937 treated with UV light, lane 5 contains U937 treated with TPCK and UV light.
DNA fragmentation was carried out according to the procedure of Example 2. After the desired treatments, the cells were lysed and debris was removed by centrifugation at 13,000×g for 10 sec. DNA in the supernatant was ethanol precipitated after phenol extraction. Equivalent amounts of material from a fixed number of cells were loaded and electrophoresed on a 1.0% agarose slab gel. DNA was visualized by ethidium bromide staining.

Test [6] has as its system isolated U937 nuclei. In words: DNA fragmentation assay using isolated U937 nuclei. The test is classed as cell-based, human. As to conditions: inhibitor 50 μM (FIG. 6B). Here is the method:
U937 cells were labeled with ^3 H-thymidine by culturing overnight with isotope at 0.5 μCi/ml. The cells were pelleted, washed once, and the cytoplasmic membrane lysed by resuspending the cells in assay buffer (50 mM Tris, 250 mM sucrose 10 mM MgSO4, pH 7.5) plus 0.02% NP-40. Nuclei were then pelleted and resuspended in assay buffer at 1×10^6 /ml. The assay was set up in triplicate in flat bottom microtiter plates under sterile conditions. Nuclei (0.05 ml) were mixed with 0.05 ml of sample diluted in 50 mM Tris pH 7.5 or buffer alone to determine total counts. Plates were incubated for 5 h at 37° C. and then harvested by the addition of 0.1 ml of harvesting buffer (10 mM Tris, 10 mM EDTA, 0.3% Triton X-100, pH 7.5). Plates were harvested by filtration onto glass fiber paper and counted on a Packard Matrix 96 beta counter. Percent DNA fragmentation was calculated as follows: […]

Test [7] relates to chymotrypsin-like enzymes. The conditions noted are these: cited from earlier work.
For test [8], the system named is HL-60 cells. As to conditions: Bruno et al. 1992; cited from earlier work.
For test [9] the following is noted: Poe et al. 1991; cited from earlier work.
Test [10] has as its system TNF-induced hepatocyte apoptosis. In words: TNF-induced hepatotoxicity in mice (serum transaminases). The test is classed as in vivo, Balb/c mice. Here is the method:
In this example the concept that a protease inhibitor such as DK120 may attenuate inappropriate apoptosis that causes tissue damage in systemic inflammatory response syndrome (SIRS) was tested. TNF-induced hepatocyte apoptosis in mice was performed as described by Leist et al. ((1995) J. Immunol. 154:1778-1786). Briefly, Balb/c mice were injected ip with […] murine TNF combined with […] Actinomycin D/mouse. Twelve h later, mice were anesthetized and bled from the heart to measure serum transaminase levels, which are standard clinically used indicators of liver damage. Mice that were treated with protease inhibitors were injected ip with these compounds 30 min. prior to TNF. Alanine aminotransferase (ALT) and aspartate aminotransferase (AST) were assayed using a commercially available kit (Sigma). […] However, treatment with DK120 caused a doss-dependent decrease in serum transaminase levels. […] However, a drug that nonspecifically blocks all apoptotic pathways that normally function to maintain homeostasis may not be clinically desirable. Subsequent studies were performed to determine if DK120 could also suppress hepatocyte apoptosis in response to a different stimulus.
^1 Mice (2 for each treatment) were injected ip +/- DK120 30 min prio
to TNF and Actinomycin D. Twelve h later serum transaminase levels were
(§3) To further explore the specificity of DK120 attenuation of TNF-induced hepatotoxicity, several compounds were tested that were found previously not to inhibit apoptotic protease proteolytic activity as measured against a synthetic substrate (data not shown). […] Therefore, the protection mediated by DK120 is not a property of any boron-containing molecule.
^1 Mice (3 for each treatment) were injected ip +/- the inhibitors 30
min prior to TNF and Actinomycin D. Twelve h later serum transaminase

Test [11] deals with apoptotic protease. As to the kind of experiment: Inhibition of apoptotic protease proteolytic activity against a synthetic substrate. It is filed as biochemical, human. The conditions noted are these: data not shown. Here is the method: Proteolytic activity was assayed using synthetic substrates selective for different known proteases. All assays were set up by adding 0.02 ml of sample (or known enzyme as a positive control) plus 0.18 ml of appropriate substrate dissolved in PBS PH 7.5 in triplicate in flat bottom microtiter plates, incubated for the indicated length of time at room temperature, and the OD at 405 nm measured using a plate reader.
Elastase-like activity was measured using N-methoxysuccinyl-ala-ala-pro-valp-nitroanilide (SEQ ID NO: 3) (MAAPV) at 0.25 mM as a substrate. For convenience and maximum sensitivity, these assays were routinely incubated 20 h to monitor protease purification. Under these conditions, the elastase dose response was linear up to a concentration of 6.0 μg/ml (OD of 1.0), see FIG. 3C. […] In order to quantitate the activity of the purified protease, identical assays were set up but kinetic readings of OD were taken every hour from 1-6 h. One unit of enzyme was calculated as the amount of enzyme that hydrolyzes 1.0 nmol substrate/h.
as §3

In test [12] the test system is apoptotic protease. The conditions noted are these: unspecified protease; cited from earlier work.

For the compound `Cc1ccc(S(=O)(=O)N[C@@H](Cc2ccccc2)C(=O)CCl)cc1` [TPCK, N-1-tosylamide-2-phenylethylchloromethyl ketone], in [1] (Homo sapiens, U-937, read-out: IC50 (Active Concentration), TNF and UV-light induced apoptosis), the pIC50 is 5.70. For the same compound, the “Concentration of maximum suppression of DNA fragmentation” value in test [1] (U937, TNF 1.0 ng/ml plus cycloheximide or UV 0.1 J/cm^2, 1 h pretreatment (FIG. 1)) came out at 2.0 µM. The “Effect on DNA fragmentation induced by TNF or UV light” value in test [1] (U937 cells) is listed as “suppressed DNA fragmentation; also recorded: dose-dependently inhibit DNA fragmentation”. In addition, the “% DNA fragmentation” value is recorded as 19 ± 5.5% in test [2] (inhibitor 1 μM); 0 ± 0% in test [2] (inhibitor 5 μM); 32 ± 1.1% in [3] (inhibitor 1 μM); 18 ± 0.8% in [3] (inhibitor 5 μM); 19 ± 2.0% in [4] (inhibitor 1 μM); 1 ± 2.3% in [4] (inhibitor 5 μM). Further, in [2] (summary of Table 2 (BT-20, 3T3, HL-60)), the “Effect on UV-induced DNA fragmentation” value is “effectively blocked DNA fragmentation”. For the same compound, in [5] (TPCK 10 μM 30 min, UV 0.15 J/cm^2, 2.5 h), the “Effect on UV light-induced DNA fragmentation, agarose gel” value is reported as “completely abolished UV light-induced DNA fragmentation”. Further, the “DNA fragments on agarose gel, compound alone” value in test [5] (TPCK alone, no UV) is recorded as “no DNA fragments”. Further, the “Inhibition of nuclear DNA fragmenting activity of protease from UV-treated cells” value in test [6] is given as “inhibited”. Besides, the “Inhibition of chymotrypsin / chymotrypsin-like enzymes” value in test [7] was “potent inhibitor of chymotrypsin-like enzymes”. In test [8], the “Effect on chemotherapeutic drug-induced apoptosis” value was “inhibits chemotherapeutic drug-induced apoptosis”.
With “human granzyme B: serine protease of cytotoxic lymphocyte granules”, in test [9], the “Activity on methoxysuccinyl-ala-ala-pro-val-thiobenzyl ester” value was “inactive”.
Take isopropylboronic acid [IBA]: the “Inactive Compounds, Highest Concentration Tested (highest nontoxic concentration, inactive)” value in test [1] (U937 cells, TNF and UV light, compound inactive at this concentration) is 20 µM. The “Effect on DNA fragmentation induced by TNF or UV light” value in [1] (U937 cells) was “does not inhibit DNA fragmentation”. Further, the “Protection from TNF-induced hepatotoxicity” value in test [10] (Table 10, 10 mg/kg) is “does not protect from TNF-induced hepatotoxicity”. Also, the ALT in [10] (mouse, in vivo) is 393 +/- 52 U/ml. For the same compound, the “Inhibition of apoptotic protease proteolytic activity” value in test [11] was “no protease inhibitory activity”. In addition, the “Protease inhibitory activity” value in [12] was “non-inhibitory; also recorded: devoid of protease inhibitory activity”.

Values taken from patent publication US5952189A (priority 1997, dated 1999).
